pIC50: −log10 of the molar value. Like-named read-outs stand apart in the source and are kept apart here.
Assays:
[1] = system: PARP; assay: Immunofluorescence analysis with anti-poly(ADP-ribose) antibody, HeLa cells; type: cell-based
Experimental: HeLa and DLD1 cells were grown on coverslips for PARP activity experiments. Cells treated with 4 uM β-lapachone at different time points and fixed with methanol acetone (70/30, v/v) for 10 min at −20° C. Coverslips were air dried and rehydrated in PBS at room temperature for 10 min. Samples were than incubated in blocking buffer (PBS, 5% FBS) for 10 minutes at room temperature in a humid chamber. Cells were incubated overnight at 4° C. with monoclonal anti-poly(ADP-ribose) antibody (I OH, 1:100 dilution). After washing, the cells were incubated for 1 hr at room temperature with a 1:500 dilution of FITC conjugated anti-mouse antibody. For the PARP inhibition study, cells pre-teated for 1 h with the PARP inhibitor 3-aminobenzamide (3-AB, 5 mM), and then co-treated with inhibitor and β-lapachone for a further 10 minutes followed by immunofluorescence staining. Immunofluorescence was evaluated using an immunofluorescence microscope equipped with a CCD camera.
HeLa cells were grown on coverslips for 24 h, then treated with 4 μM β-lapachone at different time points and fixed with methanol acetone (70/30, v/v) for 10 min. Samples were incubated in blocking buffer (5% FBS in PBS) for 10 minutes at room temperature in a humid chamber. […] Immunofluorescence was evaluated using an immunofluorescence microscope equipped with a CCD camera. […]

[2] = system: E2F1 tet-inducible DLD1 cells; assay: Apoptosis in E2F1 tet-inducible DLD1 cells; type: cell-based
Source text: To investigate E2F1 induced apoptosis, an inducible system was established. Human colon cancer cell lines harboring a mutated p53 gene were used to generate E2F1-inducible cell lines (Rodrigues, et al., PNAS, 87:7555-9 (1990)). […] Under the tetracycline induction conditions, a significant percentage of DLD1 cells undergoing apoptosis were detected at a given time point (10% at day 3; 15% at day 4) as determined by propidium iodide (PI) staining and flow cytometry (FIG. 10B). The apoptosis was further confirmed by assaying morphological changes following expression of E2F1 (FIG. 10C). Similar data was obtained in E2F1-inducible SW480 human colon cancer cells. In addition to proapoptotic function, E2F1 is a necessary transcription factor for cell proliferation (Johnson, D. et al., Nature 365:349-52 (1993); Wu, L. et al. Nature 414:457-62 (2001)). Under these experimental conditions, no significant changes in overall cell cycle distribution were observed.
To further investigate the mechanism of E2F1-induced apoptosis, the role of caspase activation was investigated. Two forms of caspase-3, procaspase and cleaved caspase were detected by western blot analysis. […] Further, it was determined if E2F1-induced, p53 independent apoptosis was affected by inhibiting caspase function with a pancaspase inhibitor. Apoptosis induced by camptothecin, a known caspase-3 activator, was used as a positive control.
Activation of PARP-1 has been implicated in caspase independent apoptosis. It was investigated whether E2F1 induced cell death involved PARP-1 activation. Poly ADP ribosylation (PAR), the functional indicator of PARP-1 activation, was detected by immunoblot with a specific anti-PAR antibody. […] Immunocytochemical staining of PAR further conformed the activity of PARP-1 (FIG. 11B). The nuclear PAR stain was increased after expression of E2F1 for 24 h and reached a plateau at 48 h. To determine if poly ADP ribosylation plays a causal role in E2F1 induced apoptosis, 3′-aminobenzamide (3′-AB), a universal inhibitor of PARP activity, was used.
Protein poly ADP ribosylation is catalysed by members of the poly (ADP-ribose) polymerase family that consists of 18 genes (Amé, J. C., et al., Bioessays 26:882-93 (2004)). The PARP-1 protein is the dominant member in most cells, which contributes the majority of overall poly ADP ribosylation induced by DNA damage (Davidovic, L. et al., Exp Cell Res 268:7-13 (2001)). To distinguish which member of the PARP family was involved in E2F1-induced apoptosis, siRNA technology was utilized to reduce PARP-1 protein levels. A chemically synthesized PARP-1 siRNA pool was electroporated into the DLD1-E2F1 inducible cell line. The PARP-1 protein began to decrease at day 2 and reached the lowest levels at day 4 and gradually recovered from day 6 as shown by western blot (FIG. 12A) and immunocytochemical staining. […] The E2F1-induced apoptosis was compromised following PARP-1 knockdown (P<0.001) (FIG. 12C).

[3] = system: DLD1 cells; assay: MTT cell death assay, DLD1 cells; type: cell-based, human
Experimental: (§1) Cell death was determined by the 3-(4,5-dimethylthiazol-2-yl)-2,5-diphenyl tetrazolium bromide (MTT) assay or by trypan blue exclusion, as indicated. Briefly, HeLa and DLD1 cells were plated in a 96-well plate at 10,000 cells per well, cultured for 24 h in complete growth medium, then treated with various concentrations of β-lapachone for 4 h MTT was added to a final concentration of 0.5 mg/ml, and incubated for 1 hr, followed by assessment of cell viability using a microplate reader at 570 nm. For the trypan blue exclusion assay, HeLa and DLD1 cells were plated in 6-well plate and treated in the same way. They were harvested, and trypan blue dye solution was added to the cell suspension. Total cell counts and viable cell numbers were determined with a hemacytometer. For the PARP inhibition study, cells were […] for 1 h with the PARP inhibitor 3-aminobenzamide (3-AB, 5 mM), and then co-treated with inhibitor and β-lapachone for a further 4 h, followed by MTT assay or trypan blue staining. […] HeLa and DLD1 cells were plated in 96-well plates at 10,000 cells per well, cultured for 24 h in complete growth medium, pretreated with PARP inhibitor 3-AB […] or equal volume of DMSO for 1 h, and then exposed to β-lapachone at various concentrations for a further 4 h, followed by MTT assay.

[4] = system: HeLa cells; assay: NAD depletion assay; type: cell-based
Experimental: HeLa cells were plated at 6×10^5 cells per well (35 mm, 6-well dishes). Eighteen hours after plating, cells were treated with β-lapachone (0, 2, 4 or 8 μM) in growth media (DMEM; 10% FBS) for the time periods indicated (15, 30 and 60 minutes). Following drug treatment cells were washed 2× with PBS. Cells were subsequently lysed in 200 μL NAD lysis buffer (61 mM glycyl-glycine, pH 7.4, 0.1% Triton-X-100). Cellular lysates were clarified by centrifugation at 16,000 g for 10 minutes. Aliquots of clarified lysates were transferred to 96-well plates (25 μL samples in triplicate) for to determine NAD^+ concentrations.
Determination of lysate NAD levels was performed using a modification of the NAD recycling assay described by Ying et al. (PNAS, 98(21):12227-32 (2001)). Briefly, the NAD reaction mixture consisted of 0.1 mM 3-[4,5-dimethylthiazol-2-yl]-2,5-diphenyl-tetrazolium bromide (MTT), 0.9 mM phenazine methosulfate, 13 units/ml alcohol dehydrogenase (from yeast extract, Sigma), 100 mM nicotinamide, and 5.7% ethanol in 61 mM Gly-Gly buffer (pH 7.4). To each aliquot of cellular lysate, 200 μL of reaction mixture was added. Absorbance readings (560 nm) were taken every minute for five minutes. Results were calibrated with NAD^+ standards and were subsequently normalized to protein concentration as determined using the Bio-Rad protein Assay.

[5] = system: HeLa cells; assay: MTT cell death assay, HeLa cells; type: cell-based; settings: for cell survival percentage: MTT (FIG. 1)
Experimental: as §1

[6] = system: MCF7 cells; assay: NAD+ supplementation experiment, MTT assay; type: cell-based; settings: Homo sapiens, 4 h, MTT (FIG. 8), read-out: IC50 (cytotoxicity)
Experimental: For NAD^+ supplementation experiment, MCF7 cells were plated in 96-well plates at a density of 10,000 cells per well. Sixteen to eighteen hours later cells were pre-treated with […] 3-aminobenzamide, 10 mM NAD+, or vehicle control (all treatments in formulated in growth media: DMEM with 10% fetal bovine serum) for 1 hour at 37° C. Following this incubation, cells (under each pre-incubation treatment) were treated with β-lapachone at indicated concentrations for 4 hours at 37° C. An MTT assay was then performed as described above.

[7] = system: PARP; assay: PARP activity assay in cell lysate; type: biochemical, human; settings: various β-lapachone concentrations vs 0 μM control, dose-dependent (FIG. 9)
Experimental: A cell extract was generated by scraping a 15 cm (˜80% confluent) dish of MCF7 cells into 1.5 ml of PARP buffer (50 mM Tris pH 8.0, 25 mM MgCl2) containing protease inhibitors. The cell suspension was sonicated at 30% amplitude with 3×10 second bursts on ice. The cell lysate was subsequently clarified by centrifugation at 16,000 g for 10 minutes at 4° C. Any remaining insoluble material was removed by passing the clarified lysate through a 5 ml syringe containing a cotton pad-filter. The protein concentration of extracts was typically between […]. PARP in vitro activity was determined using a modification of the PARP in vitro assay from TREVIGEN™. Reactions were comprised of the following: ˜60 μg of cellular protein, 100 μM NAD, 10 μg of histone H1, β-lapachone (at various concentrations) or DMSO control, 25 mM MgCl2, 50 mM Tris-Cl pH 8.0. Reactions were incubated for 10 minutes at room temperature and terminated by the addition of 900 μL of cold 25% trichloroacetic acid. Terminated reactions were incubated on ice for 10 minutes. TCA-precipitated proteins were isolated by passing reaction over glass-fiber filters under vacuum. Filters were subsequently washed three times with 5 ml of 5% TCA followed by 2 washes with cold ethanol. […] The amount of ^32P labeled NAD incorporated into polyribosylated proteins was then determined by liquid scintillation measurement.

NC(=O)c1cccc(N)c1 [3-aminobenzamide]
effect on β-lapachone induced activation of PARP ([1]; 5 mM 3-AB 1 h, then 4 μM β-lapachone 10 minutes (FIG. 5)): blocked | effect on apoptosis of addition alone ([2]; 3′-AB alone vs control group): no effect on apoptosis | inhibition at 5000 µM ([2]; Homo sapiens, DLD-1, read-out: inhibition of E2F1 induced apoptosis): > 70% | effect on β-lapachone-induced cell death ([3]; 3-AB pretreatment 1 h, MTT): blocked | effect on β-lapachone-mediated NAD+ depletion ([4]; data not shown): inhibited | effect on β-lapachone-induced cell death ([5]; HeLa cells, 3-AB pretreatment 1 h, MTT): blocked

Z-VAD
cytotoxic effects of addition alone ([2]; Z-VAD alone): no cytotoxic effects | effect on camptothecin-induced apoptosis ([2]; Z-VAD at 50 μM (FIG. 10F)): blocked | effect on E2F1-induced apoptosis ([2]; Z-VAD at 50 μM, tetracycline induction (FIG. 10F)): failed to block

CC1(C)CCC2=C(O1)c1ccccc1C(=O)C2=O [β-lapachone, 3,4-dihydro-2,2-dimethyl-2H-naphtho [1,2-b]pyran-5,6-dione]
activation of PARP (anti-poly(ADP-ribose) fluorescence) ([1]; 4 μM β-lapachone, 5 minutes to 2 hours (FIG. 4)): increases fluorescence | pIC50 ([6]; control (no NAD+ supplementation)): ~5.57 | pIC50 ([6]; exogenous NAD+ supplementation (10 mM, 1 h pre-treatment)): ~5.18 | PARP activity in cellular lysate [7]: induces enhancement of PARP activity above the basal level | cell survival percentage ([3]; pretreated 1 h with PARP inhibitor 3-AB, then β-lapachone for 4 h, MTT (FIG. 1)): approximately 75% | cellular NAD+ levels ([4]; 8 μM β-lapachone, within 15 minutes (FIG. 7)): ~20 % of control | cellular NAD+ levels ([4]; β-lapachone concentrations in excess of the IC50, by 30 minutes (FIG. 7)): less than 50 % of control | cell survival percentage ([5]; HeLa cells, pretreated 1 h with PARP inhibitor 3-AB, then β-lapachone for 4 h): ~60% | cell survival percentage ([5]; HeLa cells, β-lapachone for 4 h without 3-AB): approximately 5% | pIC50 ([5]; Homo sapiens, HeLa, cytotoxicity IC50 quoted in the NAD+ depletion example, cell line not given): ~5.55

From US20060204981A1, “Compositions for modulation of PARP and methods for screening for same” (priority 2005, published 2006)
